Inconclusive results are not listed.
Tested on: Nude mice, LX-1 lung xenograft intrarenal, tumor weight T/C
Assay: NCI In Vivo Anticancer Drug Screen. Data for tumor model Human Lung LX-1 Xenograft (intrarenal inoculation) in NU/NU BALB/C (nude) mice
Conditions: endpoint: mean tumor weight change, higher = larger tumour
Method: The antitumor activity of compounds was measured in mice bearing transplantable tumors. Survival or tumor size were measured and the results are expressed as the measurement made in the treated group (T) divided by the measurement made in the vehicle treated control group (C). The tumor model used in this assay is Human Lung LX-1 Xenograft (intrarenal inoculation) in NU/NU BALB/C (nude) mice

[1] = dose: 75.0 mg/kg/injection, schedule: Q04DX003 (sc), vehicle: saline with Tween-80
[2] = dose: 150.0 mg/kg/injection, schedule: Q04DX003 (sc), vehicle: saline with Tween-80
[3] = dose: 300.0 mg/kg/injection, schedule: Q04DX003 (sc), vehicle: saline with Tween-80

CC(C)CCCCCCCCCCCCC(=O)NCC(=O)NC1C(C)OC(Nc2ncnc3nc[nH]c23)C(O)C1O (configuration not stated)
T/C (dose: 2.0 mg/kg/injection, schedule: Q01DX010 (sc), vehicle: saline with Tween-80): 69 % of control | T/C (dose: 4.0 mg/kg/injection, schedule: Q01DX010 (sc), vehicle: saline with Tween-80): 40 % of control | T/C (dose: 8.0 mg/kg/injection, schedule: Q01DX010 (sc), vehicle: saline with Tween-80): 32 % of control | T/C (dose: 16.0 mg/kg/injection, schedule: Q01DX010 (sc), vehicle: saline with Tween-80): 17 % of control

N=[N+]=CC(=O)CCC(NC(=O)C(CCC(=O)C=[N+]=N)NC(=O)CCC(N)C(=O)O)C(=O)O (configuration not stated)
T/C (dose: 0.2 mg/kg/injection, schedule: Q02DX005 (sc), vehicle: water): 114 % of control | T/C (dose: 0.4 mg/kg/injection, schedule: Q02DX005 (sc), vehicle: water): 73 % of control | T/C (dose: 0.8 mg/kg/injection, schedule: Q02DX005 (sc), vehicle: water): 26 % of control | T/C (dose: 1.6 mg/kg/injection, schedule: Q02DX005 (sc), vehicle: water): 74 % of control | T/C (dose: 3.2 mg/kg/injection, schedule: Q02DX005 (sc), vehicle: water): 65 % of control | T/C (dose: 6.4 mg/kg/injection, schedule: Q02DX005 (sc), vehicle: water): 41 % of control

FC(F)(F)c1nc2nc(Cl)c(Cl)nc2[nH]1
T/C [1]: 116 % of control | T/C [2]: 74 % of control | T/C [3]: 68 % of control

C/C=C(\C)c1cc(=O)c2c(C)cc3c(c2o1)C(=O)c1c(O)c(C2CC(C)(N(C)C)C(OC(C)=O)C(C)O2)cc(C2CC(N(C)C)C(O)C(C)O2)c1C3=O (configuration not stated)
T/C (dose: 0.63 mg/kg/injection, schedule: Q04DX003 (sc), vehicle: saline): 68 % of control | T/C (dose: 1.25 mg/kg/injection, schedule: Q04DX003 (sc), vehicle: saline): 48 % of control | T/C (dose: 2.5 mg/kg/injection, schedule: Q04DX003 (sc), vehicle: saline): 45 % of control | T/C (dose: 5.0 mg/kg/injection, schedule: Q04DX003 (sc), vehicle: saline): 51 % of control

O=S(=O)(N=N/C=C1\C=CC=CN1O)c1cccs1
T/C (dose: 37.5 mg/kg/injection, schedule: Q04DX003 (sc), vehicle: saline with Tween-80): 121 % of control | T/C [1]: 82 % of control | T/C [2]: 103 % of control

CC1(CO)C(O)CCC2(C)C1CCC1CC3CC12CCC3(O)CO (configuration not stated)
T/C (dose: 50.0 mg/kg/injection, schedule: Q01DX010 (sc), vehicle: saline with Tween-80): 86 % of control | T/C (dose: 400.0 mg/kg/injection, schedule: Q01DX010 (sc), vehicle: saline with Tween-80): 34 % of control

O=C(CCCN1CCC(C(O)c2ccc(F)cc2)CC1)c1ccc(F)cc1 (configuration not stated)
T/C (dose: 12.5 mg/kg/injection, schedule: Q04DX003 (ip), vehicle: saline with Tween-80): 64 % of control | T/C (dose: 25.0 mg/kg/injection, schedule: Q04DX003 (ip), vehicle: saline with Tween-80): 68 % of control | T/C (dose: 50.0 mg/kg/injection, schedule: Q04DX003 (ip), vehicle: saline with Tween-80): 69 % of control

S=P(N1CC1)(N1CC1)N1CC1
T/C (dose: 4.0 mg/kg/injection, schedule: Q01DX010 (sc), vehicle: saline): 77 % of control

CC(=O)Oc1[nH]c(=O)c2cccc3c2c1CCC3
T/C [3]: 62 % of control | T/C (dose: 600.0 mg/kg/injection, schedule: Q04DX003 (sc), vehicle: saline with Tween-80): 68 % of control | T/C (dose: 1200.0 mg/kg/injection, schedule: Q04DX003 (sc), vehicle: saline with Tween-80): 90 % of control | T/C (dose: 2400.0 mg/kg/injection, schedule: Q04DX003 (sc), vehicle: saline with Tween-80): 83 % of control

CC(=O)O[C@H]1C(=O)[C@@]2(C)[C@H]([C@H](OC(=O)c3ccccc3)[C@]3(O)C[C@H](OC(=O)[C@H](O)[C@@H](NC(=O)c4ccccc4)c4ccccc4)C(C)=C1C3(C)C)[C@]1(OC(C)=O)CO[C@@H]1C[C@@H]2O
T/C (dose: 50.0 mg/kg/injection, schedule: Q01DX010 (sc), vehicle: Klucel (hydroxypropylcellulose) (HPC)): 63 % of control | T/C (dose: 100.0 mg/kg/injection, schedule: Q01DX010 (sc), vehicle: Klucel (hydroxypropylcellulose) (HPC)): 93 % of control | T/C (dose: 200.0 mg/kg/injection, schedule: Q01DX010 (sc), vehicle: Klucel (hydroxypropylcellulose) (HPC)): 68 % of control | T/C (dose: 400.0 mg/kg/injection, schedule: Q01DX010 (sc), vehicle: Klucel (hydroxypropylcellulose) (HPC)): 51 % of control

O=C1NC(=O)NC(C(=O)O)N1
T/C (dose: 100.0 mg/kg/injection, schedule: Q04DX003 (sc), vehicle: Klucel (hydroxypropylcellulose) (HPC)): 87 % of control | T/C (dose: 200.0 mg/kg/injection, schedule: Q04DX003 (sc), vehicle: Klucel (hydroxypropylcellulose) (HPC)): 98 % of control | T/C (dose: 400.0 mg/kg/injection, schedule: Q04DX003 (sc), vehicle: Klucel (hydroxypropylcellulose) (HPC)): 106 % of control
